The source of these data is publication PMC10218704, “A Novel Blood–Brain Barrier-Penetrating and Vascular-Targeting Chimeric Peptide Inhibits Glioma Angiogenesis” (International Journal of Molecular Sciences, 2023).

Each structure is given as a SMILES string.

The subject of one data set is HUVECs. As to the kind of experiment: Transwell invasion assay. It is filed as cell-based, human. Conditions: 160 μmol/L; VEGF-A165 30 ng/mL; 24 h; n = 3. The procedure:
Matrigel was diluted in serum-free F-12K medium (dilution ratio 1:5) and was coated onto each transwell chamber and incubated at 37 °C for 2 h. HUVECs were seeded in the upper compartment of the transwell chamber at a density of 2 × 10^4 cells/well. F-12K medium (containing 20% serum) was added to the lower chamber. […] Then, the medium was aspirated, and the chambers were washed with PBS and placed in a fixative for 30 min, stained with 0.1% crystal violet for 30 min, washed with PBS, and dried. An inverted fluorescence microscope was used to photograph the chambers, and the number of invaded cells was counted. The cells that migrated to the bottom of the chamber were photographed with an inverted microscope.

A further data set has as its system VEGFR-2. As to the kind of experiment: Western blot, phosphorylation of VEGFR-2. It is filed as cell-based, human. Conditions: 320 μmol/L; 90 min; VEGF-A165 30 ng/mL; HUVECs; n = 3. As for the experimental part:
(§1) For Western blotting analysis, HUVECs were seeded into 6-well culture plates at 3 × 10^5 cells/well and incubated overnight. […] Two control groups (F-12K medium in the absence or presence of VEGF-A165) were set. The cells were washed with cold PBS and lysed with lysis buffer (protease and phosphatase inhibitors) on the ice for 30 min, and then centrifuged at 4 °C for 15 min at 14,000 r/min. The supernatant was collected, and its total protein concentration was determined by the BCA protein assay kit. Equal amounts of proteins were separated by 10% SDS-PAGE gels and transferred to polyvinylidene difluoride (PVDF) membranes. After blocking with 5% non-fat milk for 1 h, the membranes were incubated with specific antibodies at 4 °C overnight. Then, the membranes were washed with TBST (Tris-Buffered Saline with 0.1% Tween 20) and incubated with horseradish peroxidase (HRP)-conjugated secondary antibody for 1 h at room temperature. The proteins on the membranes were visualized with enhanced chemiluminescence agents.
(In general: In western blotting, separated proteins are transferred to a membrane and probed.)

For another data set, the system named is PLC-γ. As to the kind of experiment: Western blot, phosphorylation of PLC-γ. It is filed as cell-based, human. Conditions: 320 μmol/L, 90 min, VEGF-A165 30 ng/mL, HUVECs, vs control, AT7, TAT, n = 3. As for the experimental part:
as §1

The test system of data set [1] is intracranial U87-mCherry-luc glioma. As to the kind of experiment: Glioma distribution and vascular targeting in vivo (FITC fluorescence, CD31 immunostaining). Set-up: species or system nude mice. Conditions: 1 h. From the text:
The orthotopic U87-mCherry-luc glioma-bearing nude mice model was firstly established. Female nude mice were anesthetized by isoflurane and fixed on a ventricle stereotaxic instrument. U87-mCherry-luc cells were collected after trypsin digestion and then injected into the right striatum of the brain of nude mice. On the 4th day after the surgery, the bioluminescence of the glioma tissue was detected by the IVIS kinetic imaging system (Lumina II; Caliper, MA, USA). The mice were randomly divided into four groups according to the bioluminescence intensity (n = 3). FITC-AT7, FITC-TAT, and FITC-TAT-AT7 (30 mg/Kg) were injected into mice via the tail vein on day 8. The control group was only injected with normal saline. After 1 h, the mice were sacrificed, and the brains were collected and fixed with 4% paraformaldehyde for 24 h. Then, the fixed brains were dehydrated by 15% and 30% sucrose, successively, frozen with O.C.T. embedding reagent, and then cut into frozen brain tissue slices. Then, sections of slices were incubated with rabbit anti-murine CD31 antibody, followed by treatment with Cy5.5-labeled goat anti-rabbit IgG secondary antibody. The slices were further stained with DAPI for 5 min and observed using a confocal microscope.

[2] abbreviates: FITC-labeled peptide 30 mg/kg, tail vein, n = 3.

Turning to `CC(C)C[C@H](NC(=O)[C@H](Cc1c[nH]c2ccccc12)NC(=O)[C@@H](NC(=O)[C@H](C)NC(=O)[C@H](CS)NC(=O)[C@H](CCCNC(=N)N)NC(=O)[C@H](CCCNC(=N)N)NC(=O)[C@H](CCCNC(=N)N)NC(=O)[C@H](CCC(N)=O)NC(=O)[C@H](CCCNC(=N)N)NC(=O)[C@H](CCCNC(=N)N)NC(=O)[C@H](CCCCN)NC(=O)[C@H](CCCCN)NC(=O)[C@@H](N)CCCNC(=N)N)[C@@H](C)O)C(=O)N1CCC[C@H]1C(=O)N1CCC[C@H]1C(=O)N[C@@H](CCCNC(=N)N)C(=O)O` [TAT-AT7], in the data set on HUVECs, the invasion rate result was “significantly lower than that of the other groups”. For the same compound, the “phosphorylation level of VEGFR-2” value in the data set with VEGFR-2 is listed as “reduce the phosphorylation level of VEGFR-2”. In the data set with PLC-γ, the “phosphorylation level of PLC-γ” value is recorded as “significantly inhibited the phosphorylation level”. Besides, in data set [1] (setting [2]), the “co-localization with glioma blood vessels (CD31)” value is “obviously co-localized with glioma blood vessels”; the “green (FITC) fluorescence intensity in glioma tissue” value is “significantly higher than that in the AT7 and TAT groups”. Moreover, the “accumulation and distribution in the glioma region” value in data set [1] (FITC-labeled peptide, intravenous, discussion) was “higher accumulation and deeper distribution in the glioma region after intravenous injection compared to TAT and TAT+AT7”.
